Where “and” joins values, the source holds several entries; their conditions need not be identical. Equal entries are not always repeated.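 The compound was tested at five concentrations on cells cultured in 96-well plates, with a 48-hour exposure period. The concentration for 50% growth inhibition is given as GI50. TGI is the concentration that stops growth completely.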
test system: HCT-15 colon; assay: NCI tumour cell line growth inhibition, 48 h

Row | Compound | TGI
1 | Cc1c2cnccc2c(C)c2c1c1ccccc1n2CCCN | 0.724 µM and 1.11 µM
2 | O=C(CCC(=O)c1ccc(Cl)cc1)NO | > 100 µM
3 | COc1c(C)c(C/C=C(\C)CCCCO[Si](c2ccccc2)(c2ccccc2)C(C)(C)C)c(OC)c(OC)c1OC | > 46.4 µM
4 | CN1CCN([C@H]2C[C@H]3[C@@H]4CC=C5C[C@@H](O)CC[C@]5(C)[C@H]4CC[C@]3(C)C2=O)CC1 | > 100 µM
5 | COc1ccc(C2c3cc4c(cc3OC(NNS(=O)(=O)c3ccc(C)cc3)C2C)OCO4)cc1 (stereo not drawn) | > 100 µM
6 | C[C@@]12C[C@@H](c3ccccc3O1)N1CCCCSC1=N2 | > 100 µM
7 | CCOC(=O)Nn1c(C)nnc1-c1ccccc1 | > 100 µM
8 | c1ccc(N=C2SC3=Nc4cccc5cccc(c45)N3C2=Nc2ccccc2)cc1 | > 100 µM
9 | Cc1cc(O)c2c(=O)c3ccccc3[nH]c2c1 | 52.1 µM
10 | N=c1n(C(=O)N2CCCC2)c2cc(Cl)ccc2n1C1=NCCN1 | > 100 µM
11 | Nc1cccc2cc(Cl)cnc12 | > 100 µM
12 | CC1=C(C)[C@@]2(C)O[C@@]2(C)O[C@@]2(C)O[C@@]12C | > 100 µM
13 | C=C1c2nc3ccccc3n2C=C(c2ccccc2)N1c1ccc([N+](=O)[O-])cc1 | 32.1 µM

test system: HOP-62 NSCLC; assay: NCI tumour cell line growth inhibition, 48 h

Row | Compound | TGI | GI50 [µM]
14 | CC[C@@]1(O)C(=O)OCc2c1cc1n(c2=O)Cc2c-1nc1ccccc1c2/C=N\NC(=O)CN | 3.73 µM | 
15 | O=C(NNC(=O)c1ccccc1SSc1ccccc1C(=O)NNC(=O)c1ccccc1S)c1ccccc1S | > 100 µM | 
16 | CCOc1cc2c(cc1O)/C(=N\OC)C[C@@H]1[C@@H]2CC[C@]2(C)[C@@H](O)CC[C@@H]12 | 26.4 µM | 
17 | O=C1/C(=C/c2ccc(O)cc2)CC/C1=C\c1ccc(O)cc1 | > 100 µM | 
18 | COC(=O)[C@H]1CO[C@@H](C(C)(C)C)N1C(=O)N1C=CC(=O)C[C@@H]1C | > 100 µM | 
19 | Clc1ccc(/C=C/c2nc3ccccc3s2)cc1Cl | 55.8 µM | 
20 | C(/c1ccco1)=c1/nc(-c2ccccc2)n2c1nc1ccccc12 | > 100 µM | 
21 | COC(=O)C1CCC(=O)N1C(c1ccccc1)c1ccc(OC)c(OC)c1 (stereo not drawn) | > 100 µM | 
22 | Oc1cccc2c(Cl)ccnc12 | > 100 µM | 
23 | Cc1cccc(/C=N/NC(=S)Nc2ccccc2)n1 | 17.8 µM | 
24 | NC(=O)C(c1ccccc1)N1OC2C(=O)N(c3ccccc3)C(=O)C2C1c1c2ccccc2c(Cl)c2ccccc12 (stereo not drawn) | > 100 µM | 
25 | COc1ccc(/C=C2\CCC(C)C3=C2NC(=S)NC3c2ccc(OC)c(OC)c2)cc1OC (stereo not drawn) | > 100 µM | 
26 | C=C(Br)C(C)(Cl)CCC(Br)C(C)(C)Cl (stereo not drawn) | > 100 µM | 
27 | Cc1c2cnccc2c(C)c2c1c1ccccc1n2CCCN | 1.52 µM and 0.597 µM | 0.0687
28 | O=C(CCC(=O)c1ccc(Cl)cc1)NO | > 100 µM | 
29 | COc1c(C)c(C/C=C(\C)CCCCO[Si](c2ccccc2)(c2ccccc2)C(C)(C)C)c(OC)c(OC)c1OC | > 46.4 µM | 
30 | CN1CCN([C@H]2C[C@H]3[C@@H]4CC=C5C[C@@H](O)CC[C@]5(C)[C@H]4CC[C@]3(C)C2=O)CC1 | > 100 µM | 
31 | COc1ccc(C2c3cc4c(cc3OC(NNS(=O)(=O)c3ccc(C)cc3)C2C)OCO4)cc1 (stereo not drawn) | > 100 µM | 
32 | C[C@@]12C[C@@H](c3ccccc3O1)N1CCCCSC1=N2 | > 100 µM | 
33 | c1ccc(N=C2SC3=Nc4cccc5cccc(c45)N3C2=Nc2ccccc2)cc1 | > 100 µM | 
34 | Cc1cc(O)c2c(=O)c3ccccc3[nH]c2c1 | 71.2 µM | 
35 | N=c1n(C(=O)N2CCCC2)c2cc(Cl)ccc2n1C1=NCCN1 | > 100 µM | 
36 | Nc1cccc2cc(Cl)cnc12 | > 100 µM | 
37 | CC1=C(C)[C@@]2(C)O[C@@]2(C)O[C@@]2(C)O[C@@]12C | > 100 µM | 
38 | C=C1c2nc3ccccc3n2C=C(c2ccccc2)N1c1ccc([N+](=O)[O-])cc1 | > 52.6 µM | 

test system: HOP-92 NSCLC; assay: NCI tumour cell line growth inhibition, 48 h

Row | Compound | TGI | GI50 [µM]
39 | CC[C@@]1(O)C(=O)OCc2c1cc1n(c2=O)Cc2c-1nc1ccccc1c2/C=N\NC(=O)CN | 21.8 µM | 
40 | O=C(NNC(=O)c1ccccc1SSc1ccccc1C(=O)NNC(=O)c1ccccc1S)c1ccccc1S | > 100 µM | 
41 | CCOC(=O)C(NC(C)=O)(Nc1ccc(F)cc1)C(F)(F)F (stereo not drawn) | > 100 µM | 
42 | CCOc1cc2c(cc1O)/C(=N\OC)C[C@@H]1[C@@H]2CC[C@]2(C)[C@@H](O)CC[C@@H]12 | > 96.6 µM | 
43 | O=C1/C(=C/c2ccc(O)cc2)CC/C1=C\c1ccc(O)cc1 | > 100 µM | 
44 | COC(=O)[C@H]1CO[C@@H](C(C)(C)C)N1C(=O)N1C=CC(=O)C[C@@H]1C | > 100 µM | 
45 | Clc1ccc(/C=C/c2nc3ccccc3s2)cc1Cl | 72.3 µM | 
46 | C(/c1ccco1)=c1/nc(-c2ccccc2)n2c1nc1ccccc12 | > 100 µM | 
47 | COC(=O)C1CCC(=O)N1C(c1ccccc1)c1ccc(OC)c(OC)c1 (stereo not drawn) | > 100 µM | 
48 | Oc1cccc2c(Cl)ccnc12 | 21.5 µM | 
49 | Cc1cccc(/C=N/NC(=S)Nc2ccccc2)n1 | > 92.9 µM | 
50 | NC(=O)C(c1ccccc1)N1OC2C(=O)N(c3ccccc3)C(=O)C2C1c1c2ccccc2c(Cl)c2ccccc12 (stereo not drawn) | > 100 µM | 
51 | COc1ccc(/C=C2\CCC(C)C3=C2NC(=S)NC3c2ccc(OC)c(OC)c2)cc1OC (stereo not drawn) | > 100 µM | 
52 | C=C(Br)C(C)(Cl)CCC(Br)C(C)(C)Cl (stereo not drawn) | 95.6 µM | 
53 | Cc1c2cnccc2c(C)c2c1c1ccccc1n2CCCN | 1.22 µM and 2.14 µM | 0.776
54 | O=C(CCC(=O)c1ccc(Cl)cc1)NO | > 100 µM | 
55 | COc1c(C)c(C/C=C(\C)CCCCO[Si](c2ccccc2)(c2ccccc2)C(C)(C)C)c(OC)c(OC)c1OC | > 31.6 µM | 
56 | CN1CCN([C@H]2C[C@H]3[C@@H]4CC=C5C[C@@H](O)CC[C@]5(C)[C@H]4CC[C@]3(C)C2=O)CC1 | > 100 µM | 
57 | COc1ccc(C2c3cc4c(cc3OC(NNS(=O)(=O)c3ccc(C)cc3)C2C)OCO4)cc1 (stereo not drawn) | 85.3 µM | 
58 | C[C@@]12C[C@@H](c3ccccc3O1)N1CCCCSC1=N2 | > 100 µM | 
59 | CCOC(=O)Nn1c(C)nnc1-c1ccccc1 | > 100 µM | 
60 | c1ccc(N=C2SC3=Nc4cccc5cccc(c45)N3C2=Nc2ccccc2)cc1 | > 100 µM | 
61 | Cc1cc(O)c2c(=O)c3ccccc3[nH]c2c1 | > 100 µM | 
62 | N=c1n(C(=O)N2CCCC2)c2cc(Cl)ccc2n1C1=NCCN1 | > 100 µM | 
63 | Nc1cccc2cc(Cl)cnc12 | > 100 µM | 
64 | CC1=C(C)[C@@]2(C)O[C@@]2(C)O[C@@]2(C)O[C@@]12C | > 100 µM | 
65 | C=C1c2nc3ccccc3n2C=C(c2ccccc2)N1c1ccc([N+](=O)[O-])cc1 | 21.9 µM | 

test system: K-562 leukemia; assay: NCI tumour cell line growth inhibition, 48 h

Row | Compound | TGI [µM]
66 | CC[C@@]1(O)C(=O)OCc2c1cc1n(c2=O)Cc2c-1nc1ccccc1c2/C=N\NC(=O)CN | > 100
